How the values were obtained:
human FPR1 = human FPR1 (Homo sapiens (Human), UniProt P21462); assay: FPR1 cyclic adenosine monophosphate (cAMP) assay; format: cell-based; conditions: CHO cells overexpressing human FPR1; forskolin 10 µM; inhibition of cAMP production; read-out: hFPR1 cAMP EC50
Summary of the method: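 Human FPR1-expressing CHO cells were used at 4,000 per well, with compound at 0.020 nM–100 µM in 1% DMSO. Potency came from a 4-parameter logistic fit.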

human FPR2 = human FPR2 (Homo sapiens (Human), UniProt P25090); assay: FPR2 cyclic adenosine monophosphate (cAMP) assay; format: cell-based; conditions: CHO cells overexpressing human FPR2; forskolin 5 µM; inhibition of cAMP production; read-out: hFPR2 cAMP2 EC50
Summary of the method: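 Inhibition of forskolin-driven (5 µM) cAMP, with 200 µM IBMX, measured in human FPR2-expressing CHO cells, 2,000 per well, 30 min at room temperature; compounds tested 0.020 nM to 100 µM in 1% DMSO. HTRF 665/590 ratio converted to cAMP via calibration curve, then 4-parameter fit.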

human FPR1, sequence (P21462 whole entry): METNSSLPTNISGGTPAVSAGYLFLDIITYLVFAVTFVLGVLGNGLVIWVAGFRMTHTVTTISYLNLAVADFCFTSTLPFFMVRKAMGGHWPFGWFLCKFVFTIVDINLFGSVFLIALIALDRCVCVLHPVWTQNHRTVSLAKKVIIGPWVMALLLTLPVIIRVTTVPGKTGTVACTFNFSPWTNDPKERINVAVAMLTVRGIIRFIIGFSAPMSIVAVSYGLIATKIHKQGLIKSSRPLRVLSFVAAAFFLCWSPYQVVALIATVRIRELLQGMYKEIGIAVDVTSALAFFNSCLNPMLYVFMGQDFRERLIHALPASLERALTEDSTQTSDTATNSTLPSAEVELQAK
human FPR2, sequence (P25090 whole entry): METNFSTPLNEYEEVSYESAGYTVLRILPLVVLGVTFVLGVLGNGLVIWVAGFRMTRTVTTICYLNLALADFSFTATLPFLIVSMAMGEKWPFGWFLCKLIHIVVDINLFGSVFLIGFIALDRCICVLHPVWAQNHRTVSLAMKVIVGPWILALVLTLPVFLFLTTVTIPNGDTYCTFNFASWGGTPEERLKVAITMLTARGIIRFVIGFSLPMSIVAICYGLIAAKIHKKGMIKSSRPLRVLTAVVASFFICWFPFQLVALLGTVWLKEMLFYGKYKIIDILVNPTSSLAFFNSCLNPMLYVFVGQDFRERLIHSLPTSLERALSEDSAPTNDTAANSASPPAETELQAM

| EC50 (human FPR1) | EC50 (human FPR2) | SMILES |
| --- | --- | --- |
| 67 nM | 3.1 nM | COc1cc(F)c([C@@H]2CN(c3nc(N4C(=O)C5CCCC54)ccc3F)C(=O)[C@H]2NC(=O)c2ccc(OC(F)F)cc2)c(F)c1 (some centres unmarked) [Example 119] |
| 12 nM | 4.5 nM | COc1cc(F)c([C@@H]2CN(c3cccn(CC(C)O)c3=O)C(=O)[C@H]2NC(=O)c2ccc(OC(F)(F)F)cc2)c(F)c1 (some centres unmarked) [Example 173] |
| 3 nM | 3 nM | COc1cc(F)c([C@@H]2CN(c3c(C)ccn(CC4CC4)c3=O)C(=O)[C@H]2NC(=O)c2ccc(Cl)cc2)c(F)c1 [Example 450] |
| 270 nM | 2.6 nM | COc1cc(F)c([C@@H]2CN(c3cncn(C4CCN(C)C4)c3=O)C(=O)[C@H]2NC(=O)c2ccc(Cl)cc2)c(F)c1 (some centres unmarked) [Example 514] |
| > 10000 nM | 1.9 nM | COc1cc(N2C[C@@H]3C[C@H]2CN3C)nc(N2C(=O)[C@@H](NC(=O)c3ccc(Cl)cc3)[C@H](c3c(F)cc(OC)cc3F)[C@@H]2C)c1 [Example 70] |
| 420 nM | 1.4 nM | COc1cc(F)c([C@@H]2CN(c3cccc(C4CCN(C)CC4)n3)C(=O)[C@H]2NC(=O)c2ccc(OC(F)F)cc2)c(F)c1 [Example 525] |
| 4800 nM | 6.9 nM | COc1cc(F)c([C@@H]2CN(c3nccc(N4CCN(C)CC4)c3C(F)(F)F)C(=O)[C@H]2NC(=O)c2ccc(Cl)cc2)c(F)c1 [Example 250] |
| 34 nM | 3.1 nM | COc1cc(F)c([C@@H]2CN(c3cccn(C4CC4)c3=O)C(=O)[C@H]2NC(=O)c2ccc(C(F)(F)F)cc2)c(F)c1 [Example 116] |
| 900 nM | 7.7 nM | COc1cc(F)c([C@@H]2CN(c3cccc(C4CCCN(CCO)C4)n3)C(=O)[C@H]2NC(=O)c2ccc(OC(F)F)cc2)c(F)c1 (some centres unmarked) [Example 502] |
| 6.6 nM | 1.5 nM | COc1ccc([C@@H]2CN(c3cccn(CC(F)F)c3=O)C(=O)[C@H]2NC(=O)c2ccc(OC(F)F)cc2)c(F)c1 [Example 59] |
| 18 nM | 5.1 nM | CCn1cccc(N2C[C@@H](c3c(F)cc(OC)cc3F)[C@H](NC(=O)c3ccc(OC(F)F)cc3)C2=O)c1=O [Example 38] |
| 56 nM | 3.9 nM | COc1cc(F)c([C@@H]2CN(c3cccn4c(C)nnc34)C(=O)[C@H]2NC(=O)c2ccc(Cl)cc2)c(F)c1 [Example 603] |
| 6100 nM | 8 nM | CNC(=O)C(C)Nc1ccnc(N2C[C@@H](c3c(F)cc(OC)cc3F)[C@H](NC(=O)c3ccc(Cl)cc3)C2=O)c1C(F)(F)F (some centres unmarked) [Example 275] |
| 57 nM | 3.8 nM | COc1cc(F)c([C@@H]2CN(c3cccn(C(CO)C(F)(F)F)c3=O)C(=O)[C@H]2NC(=O)c2ccc(OC(F)F)cc2)c(F)c1 (some centres unmarked) [Example 583] |
| 1 nM | 1 nM | COCC(CO)n1cccc(N2C[C@@H](c3ccc(OC)cc3F)[C@H](NC(=O)c3ccc(OC(F)(F)F)cc3)C2=O)c1=O (some centres unmarked) [Example 437] |
| 1 nM | 1.8 nM | COCC(C(=O)N1CCCC1)n1cccc(N2C[C@@H](c3ccc(OC)cc3)[C@H](NC(=O)c3ccc(OC(F)F)cc3)C2=O)c1=O (some centres unmarked) [Example 444] |
| 10 nM | 1.3 nM | COc1cc(F)c([C@@H]2CN(c3c(C)ccn(CC(C)O)c3=O)C(=O)[C@H]2NC(=O)c2ccc(Cl)cc2)c(F)c1 (some centres unmarked) [Example 581] |
| 0.8 nM | 3.4 nM | COc1ccc([C@@H]2CN(c3c(C)ccn(C4CCOC4)c3=O)C(=O)[C@H]2NC(=O)c2ccc(OC(F)(F)F)cc2)cc1 (some centres unmarked) [Example 132] |
| 640 nM | 7.8 nM | COc1cc(F)c([C@H]2[C@H](NC(=O)c3ccc(OC(F)F)cc3)C(=O)N(c3cccn(CCO)c3=O)[C@@H]2C)c(F)c1 [Example 407] |

| EC50 (human FPR1) | EC50 (human FPR2) | SMILES |
| --- | --- | --- |
| 610 nM | 12 nM | COc1cc(F)c([C@@H]2CN(c3nc(N4C[C@@H]5C[C@H]4CN5C)ccc3OC)C(=O)[C@H]2NC(=O)c2ccc(OC(F)F)cc2)c(F)c1 [Example 328] |
| 720 nM | 1.9 nM | COc1cc(F)c([C@@H]2CN(c3cncn(CCC(F)(F)F)c3=O)C(=O)[C@H]2NC(=O)c2ccc(OC(F)F)cc2)c(F)c1 [Example 487] |
| 5 nM | 7.9 nM | COc1ccc([C@@H]2CN(c3ccnn(CCC(F)(F)F)c3=O)C(=O)[C@H]2NC(=O)c2ccc(OC(F)F)cc2)cc1 [Example 672] |
| 12 nM | 3.4 nM | COCC(CO)n1cccc(N2C[C@@H](c3c(F)cc(OC)cc3F)[C@H](NC(=O)c3ccc(OC(F)F)cc3)C2=O)c1=O (some centres unmarked) [Example 133] |
| 160 nM | 10 nM | COc1cc(F)c([C@@H]2CN(c3cn(C)nc3OC)C(=O)[C@H]2NC(=O)c2ccc(OC(F)(F)F)cc2)c(F)c1 [Example 631] |
| 3 nM | 1.1 nM | COCCn1ccc(C)c(N2C[C@@H](c3c(F)cc(OC)cc3F)[C@H](NC(=O)c3ccc(Cl)cc3)C2=O)c1=O [Example 422] |
| 40 nM | 3.3 nM | COc1cc(F)c([C@@H]2CN(c3c(C)c4c(n(CCO)c3=O)CCC4)C(=O)[C@H]2NC(=O)c2ccc(Cl)cc2)c(F)c1 [Example 593] |
| 790 nM | 2.6 nM | COc1cc(F)c([C@@H]2CN(c3cncn(CCO)c3=O)C(=O)[C@H]2NC(=O)c2ccc(OC(F)F)cc2)c(F)c1 [Example 488] |
| 1.5 nM | 7.6 nM | COc1ccc([C@@H]2CN(c3c(C)ccn(C4CCOC4)c3=O)C(=O)[C@H]2NC(=O)c2ccc(OC(F)F)cc2)cc1 (some centres unmarked) [Example 265] |
| 27 nM | 12 nM | COc1cc(F)c([C@@H]2CN(c3c(C)ccn(C4CCS(=O)(=O)C4)c3=O)C(=O)[C@H]2NC(=O)c2ccc(OC(F)F)cc2)c(F)c1 (some centres unmarked) [Example 701] |
| 1.5 nM | 12 nM | COc1ccc([C@@H]2CN(c3c(C)ccn(C4CCC4)c3=O)C(=O)[C@H]2NC(=O)c2ccc(OC(F)(F)F)cc2)c(F)c1 [Example 688] |
| 77 nM | 1.5 nM | COc1cc(F)c([C@@H]2CN(c3nc(C(F)(F)F)ccc3C#N)C(=O)[C@H]2NC(=O)c2ccc(OC(F)(F)F)cc2)c(F)c1 [Example 551] |
| 15 nM | 3.3 nM | COc1cc(F)c([C@@H]2CN(c3c(C)ccn(CC(F)F)c3=O)C(=O)[C@H]2NC(=O)c2ccc(Cl)cc2)c(F)c1 [Example 421] |
| 7 nM | 3.7 nM | COc1ccc([C@@H]2CN(c3c(C)ccn(CCC(F)(F)F)c3=O)C(=O)[C@H]2NC(=O)c2ccc(Cl)cc2)c(F)c1 [Example 401] |
| 28 nM | 6 nM | COc1cc(F)c([C@@H]2CN(c3cccn(CC(O)CO)c3=O)C(=O)[C@H]2NC(=O)c2ccc(OC(F)(F)F)cc2)c(F)c1 (some centres unmarked) [Example 679] |
| 290 nM | 1.9 nM | COc1cc(N2C[C@@H]3C[C@H]2CN3C)nc(N2C(=O)[C@@H](NC(=O)c3ccc(OC(F)F)cc3)[C@H](c3c(F)cc(OC)cc3F)[C@H]2C)c1 [Example 71] |
| 67 nM | 10 nM | COc1cc(F)c([C@@H]2CN(c3c(C)ccn(C)c3=O)C(=O)[C@H]2NC(=O)c2ccc(OC(F)F)cc2)c(F)c1 [Example 310] |
| 520 nM | 5.3 nM | COc1cc(F)c([C@@H]2CN(c3nc(C(F)(F)F)ccc3C)C(=O)[C@H]2NC(=O)c2ccc(OC(F)F)cc2)c(F)c1 [Example 204] |

From patent US20230348426A1, “OXOPYRROLIDINE FPR2 AGONISTS” (Bristol-Myers Squibb Company, priority 2020, published 2023)
